System: not listed separately
Assay: Mouse pharmacokinetic study, intravenous dosing
Format: in vivo
Settings: male, C57BL/6, mouse, iv; plasma, 10 mg/kg i.v., time 0.05 h; read-out: Parent compound concentration following intravenous administration
Outline: (§1)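 Oral arm: 100 mg/kg gavage in 5% DMSO with 0.5% HPMC/0.1% Tween 80, blood from 5 min to 24 h. Intravenous arm: 10 mg/kg tail-vein injection in 10% DMSO with HP-β-CD, blood from 3 min to 8 h. Male C57BL/6 mice; LC-MS/MS on plasma.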

concentration at 0.05 h [ng/mL]	SMILES
8890	C=C(CC(=O)O[C@H](C)CCCCCC)C(=O)OCc1nn[nH]n1 [Example 161, (R)-1-((2H-tetrazol-5-yl)methyl) 4-(octan-2-yl) 2-methylenesuccinate]

Same assay, conditions: male, C57BL/6, mouse, iv; plasma, 10 mg/kg i.v., time 0.133 h; read-out: Parent compound concentration following intravenous administration

concentration at 0.133 h [ng/mL]	SMILES
2380	C=C(CC(=O)O[C@H](C)CCCCCC)C(=O)OCc1nn[nH]n1 [Example 161, (R)-1-((2H-tetrazol-5-yl)methyl) 4-(octan-2-yl) 2-methylenesuccinate]

Same assay, conditions: male, C57BL/6, mouse, iv; plasma, 10 mg/kg i.v., time 0.25 h; read-out: Parent compound concentration following intravenous administration

concentration at 0.25 h [ng/mL]	SMILES
846	C=C(CC(=O)O[C@H](C)CCCCCC)C(=O)OCc1nn[nH]n1 [Example 161, (R)-1-((2H-tetrazol-5-yl)methyl) 4-(octan-2-yl) 2-methylenesuccinate]

Same assay, conditions: male, C57BL/6, mouse, iv; plasma, 10 mg/kg i.v., time 0.5 h; read-out: Parent compound concentration following intravenous administration

concentration at 0.5 h [ng/mL]	SMILES
343	C=C(CC(=O)O[C@H](C)CCCCCC)C(=O)OCc1nn[nH]n1 [Example 161, (R)-1-((2H-tetrazol-5-yl)methyl) 4-(octan-2-yl) 2-methylenesuccinate]

Same assay, conditions: male, C57BL/6, mouse, iv; plasma, 10 mg/kg i.v., time 1 h; read-out: Parent compound concentration following intravenous administration

concentration at 1 h [ng/mL]	SMILES
90	C=C(CC(=O)O[C@H](C)CCCCCC)C(=O)OCc1nn[nH]n1 [Example 161, (R)-1-((2H-tetrazol-5-yl)methyl) 4-(octan-2-yl) 2-methylenesuccinate]

Same assay, conditions: male, C57BL/6, mouse, iv; plasma, 10 mg/kg i.v., time 2 h; read-out: Parent compound concentration following intravenous administration

concentration at 2 h [ng/mL]	SMILES
5.1	C=C(CC(=O)O[C@H](C)CCCCCC)C(=O)OCc1nn[nH]n1 [Example 161, (R)-1-((2H-tetrazol-5-yl)methyl) 4-(octan-2-yl) 2-methylenesuccinate]

Same assay, conditions: male, C57BL/6, mouse, iv; plasma, 10 mg/kg i.v., time 4 h; read-out: Parent compound concentration following intravenous administration

concentration at 4 h [ng/mL]	SMILES
< 4	C=C(CC(=O)O[C@H](C)CCCCCC)C(=O)OCc1nn[nH]n1 [Example 161, (R)-1-((2H-tetrazol-5-yl)methyl) 4-(octan-2-yl) 2-methylenesuccinate]

Same assay, conditions: male, C57BL/6, mouse, iv; plasma, 10 mg/kg i.v., time 6 h; read-out: Parent compound concentration following intravenous administration

concentration at 6 h [ng/mL]	SMILES
< 4	C=C(CC(=O)O[C@H](C)CCCCCC)C(=O)OCc1nn[nH]n1 [Example 161, (R)-1-((2H-tetrazol-5-yl)methyl) 4-(octan-2-yl) 2-methylenesuccinate]

Same assay, conditions: male, C57BL/6, mouse, iv; plasma, 10 mg/kg i.v., time 8 h; read-out: Parent compound concentration following intravenous administration

concentration at 8 h [ng/mL]	SMILES
< 4	C=C(CC(=O)O[C@H](C)CCCCCC)C(=O)OCc1nn[nH]n1 [Example 161, (R)-1-((2H-tetrazol-5-yl)methyl) 4-(octan-2-yl) 2-methylenesuccinate]

System: hepatocytes
Assay: Hepatocyte stability assay (human)
Format: in vitro ADME
Settings: 10 μM compound, 0.5×10^6 cells/mL, 60 minutes
Outline: (§2)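 Cryopreserved hepatocytes (viability >70%), 0.5×10^6 cells/mL in Leibovitz buffer, incubated at 37 °C with 10 μM compound (0.1% DMSO), duplicates; buffer-only incubations as negative control. Samples at 0-60 min quenched in acetonitrile, parent measured by LC-MS/MS; half-life and Clint (μL min^−1 10^−6 cells) from ln % remaining versus time slope.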

CIint (μL min^−1 10^−6 cells)	SMILES
55	C=C(CC(=O)O[C@H](C)CCCCCC)C(=O)OCc1nn[nH]n1 [Example 161, (R)-1-((2H-tetrazol-5-yl)methyl) 4-(octan-2-yl) 2-methylenesuccinate]

System: not listed separately
Assay: Hepatocyte stability assay (human)
Format: in vitro ADME
Settings: cryopreserved hepatocytes, 10 μM compound, 0.5×10^6 cells/mL, 60 minutes, read-out: T½
Outline: as §2

half-life at 10 μM [min]	SMILES
22	C=C(CC(=O)O[C@H](C)CCCCCC)C(=O)OCc1nn[nH]n1 [Example 161, (R)-1-((2H-tetrazol-5-yl)methyl) 4-(octan-2-yl) 2-methylenesuccinate]

System: not listed separately
Assay: Mouse pharmacokinetic study, oral administration
Format: in vivo
Settings: male, C57BL/6, mouse, plasma, po, 100 mg/kg, plasma, male C57BL/6 mice, oral gavage 100 mg/kg, 0.083 h; read-out: Parent compound concentrations following oral administration, Time 0.083 h
Outline: as §1

concentration at 0.083 h [ng/mL]	SMILES
7020	C=C(CC(=O)O[C@H](C)CCCCCC)C(=O)OCc1nn[nH]n1 [Example 161, (R)-1-((2H-tetrazol-5-yl)methyl) 4-(octan-2-yl) 2-methylenesuccinate]

Same assay, conditions: male, C57BL/6, mouse, plasma, po, 100 mg/kg, plasma, male C57BL/6 mice, oral gavage 100 mg/kg, 0.25 h; read-out: Parent compound concentrations following oral administration, Time 0.25 h

concentration at 0.25 h [ng/mL]	SMILES
4340	C=C(CC(=O)O[C@H](C)CCCCCC)C(=O)OCc1nn[nH]n1 [Example 161, (R)-1-((2H-tetrazol-5-yl)methyl) 4-(octan-2-yl) 2-methylenesuccinate]

Same assay, conditions: male, C57BL/6, mouse, plasma, po, 100 mg/kg, plasma, male C57BL/6 mice, oral gavage 100 mg/kg, 0.5 h; read-out: Parent compound concentrations following oral administration, Time 0.5 h

concentration at 0.5 h [ng/mL]	SMILES
1900	C=C(CC(=O)O[C@H](C)CCCCCC)C(=O)OCc1nn[nH]n1 [Example 161, (R)-1-((2H-tetrazol-5-yl)methyl) 4-(octan-2-yl) 2-methylenesuccinate]

Same assay, conditions: male, C57BL/6, mouse, plasma, po, 100 mg/kg, plasma, male C57BL/6 mice, oral gavage 100 mg/kg, 1 h; read-out: Parent compound concentrations following oral administration, Time 1 h

concentration at 1 h [ng/mL]	SMILES
1260	C=C(CC(=O)O[C@H](C)CCCCCC)C(=O)OCc1nn[nH]n1 [Example 161, (R)-1-((2H-tetrazol-5-yl)methyl) 4-(octan-2-yl) 2-methylenesuccinate]

Same assay, conditions: male, C57BL/6, mouse, plasma, po, 100 mg/kg, plasma, male C57BL/6 mice, oral gavage 100 mg/kg, 2 h; read-out: Parent compound concentrations following oral administration, Time 2 h

concentration at 2 h [ng/mL]	SMILES
727	C=C(CC(=O)O[C@H](C)CCCCCC)C(=O)OCc1nn[nH]n1 [Example 161, (R)-1-((2H-tetrazol-5-yl)methyl) 4-(octan-2-yl) 2-methylenesuccinate]

Same assay, conditions: male, C57BL/6, mouse, plasma, po, 100 mg/kg, plasma, male C57BL/6 mice, oral gavage 100 mg/kg, 4 h; read-out: Parent compound concentrations following oral administration, Time 4 h

concentration at 4 h [ng/mL]	SMILES
186	C=C(CC(=O)O[C@H](C)CCCCCC)C(=O)OCc1nn[nH]n1 [Example 161, (R)-1-((2H-tetrazol-5-yl)methyl) 4-(octan-2-yl) 2-methylenesuccinate]

Same assay, conditions: male, C57BL/6, mouse, plasma, po, 100 mg/kg, plasma, male C57BL/6 mice, oral gavage 100 mg/kg, 6 h; read-out: Parent compound concentrations following oral administration, Time 6 h

concentration at 6 h [ng/mL]	SMILES
108	C=C(CC(=O)O[C@H](C)CCCCCC)C(=O)OCc1nn[nH]n1 [Example 161, (R)-1-((2H-tetrazol-5-yl)methyl) 4-(octan-2-yl) 2-methylenesuccinate]

Same assay, conditions: male, C57BL/6, mouse, plasma, po, 100 mg/kg, plasma, male C57BL/6 mice, oral gavage 100 mg/kg, 8 h; read-out: Parent compound concentrations following oral administration, Time 8 h

concentration at 8 h [ng/mL]	SMILES
16	C=C(CC(=O)O[C@H](C)CCCCCC)C(=O)OCc1nn[nH]n1 [Example 161, (R)-1-((2H-tetrazol-5-yl)methyl) 4-(octan-2-yl) 2-methylenesuccinate]

Same assay, conditions: male, C57BL/6, mouse, plasma, po, 100 mg/kg, plasma, male C57BL/6 mice, oral gavage 100 mg/kg, 24 h; read-out: Parent compound concentrations following oral administration, Time 24 h

concentration at 24 h [ng/mL]	SMILES
< 4	C=C(CC(=O)O[C@H](C)CCCCCC)C(=O)OCc1nn[nH]n1 [Example 161, (R)-1-((2H-tetrazol-5-yl)methyl) 4-(octan-2-yl) 2-methylenesuccinate]
